According to patent US11197862B2, “Methods of preventing toxicity of platinum drugs” (XOMICS BIOPHARMA, INC., priority 2015, dated 2021):
“Also recorded” adds a separate entry of the source.

Assays:
MATE1 = target: T1, MATE1 (Homo sapiens, UniProt Q96FL8); experiment: Inhibition of MATE1-mediated oxaliplatin transport in human serum or 4% BSA HBSS
T1 sequence (Q96FL8 1-570): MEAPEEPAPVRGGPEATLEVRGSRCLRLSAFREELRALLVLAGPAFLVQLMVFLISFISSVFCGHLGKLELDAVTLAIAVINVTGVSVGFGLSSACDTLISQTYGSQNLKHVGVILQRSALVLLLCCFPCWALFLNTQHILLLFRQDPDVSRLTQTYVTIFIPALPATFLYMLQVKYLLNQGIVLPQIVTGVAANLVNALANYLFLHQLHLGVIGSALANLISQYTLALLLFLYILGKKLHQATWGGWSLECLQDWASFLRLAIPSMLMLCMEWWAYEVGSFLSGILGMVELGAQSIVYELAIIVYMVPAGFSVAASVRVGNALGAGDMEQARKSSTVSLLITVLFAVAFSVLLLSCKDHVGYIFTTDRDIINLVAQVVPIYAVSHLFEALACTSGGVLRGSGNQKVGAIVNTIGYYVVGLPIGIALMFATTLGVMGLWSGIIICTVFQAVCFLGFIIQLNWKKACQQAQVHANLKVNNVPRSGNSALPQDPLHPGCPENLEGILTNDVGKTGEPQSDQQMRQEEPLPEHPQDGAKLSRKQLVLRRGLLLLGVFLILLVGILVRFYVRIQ
Description: (§1) Fully confluent MDCK cell monolayers were transfected with either cDNA plasmids encoding the human transporter to be tested or a GFP control. […] The cells were then washed with ice-cold PBS and lysed with 50:50 acetonitrile:H2O. Intracellular content of the substrate was quantified by LC/MS/MS or a MicroBeta radiometric plate reader.

OCT2 [1] = target: T2, OCT2 (Homo sapiens, UniProt O15244); details: OCT2-mediated uptake; ASP+ 5 μM in HBSS; from Kido Y et al. J Med Chem 2011; cited from earlier work
T2 sequence (O15244 1-555): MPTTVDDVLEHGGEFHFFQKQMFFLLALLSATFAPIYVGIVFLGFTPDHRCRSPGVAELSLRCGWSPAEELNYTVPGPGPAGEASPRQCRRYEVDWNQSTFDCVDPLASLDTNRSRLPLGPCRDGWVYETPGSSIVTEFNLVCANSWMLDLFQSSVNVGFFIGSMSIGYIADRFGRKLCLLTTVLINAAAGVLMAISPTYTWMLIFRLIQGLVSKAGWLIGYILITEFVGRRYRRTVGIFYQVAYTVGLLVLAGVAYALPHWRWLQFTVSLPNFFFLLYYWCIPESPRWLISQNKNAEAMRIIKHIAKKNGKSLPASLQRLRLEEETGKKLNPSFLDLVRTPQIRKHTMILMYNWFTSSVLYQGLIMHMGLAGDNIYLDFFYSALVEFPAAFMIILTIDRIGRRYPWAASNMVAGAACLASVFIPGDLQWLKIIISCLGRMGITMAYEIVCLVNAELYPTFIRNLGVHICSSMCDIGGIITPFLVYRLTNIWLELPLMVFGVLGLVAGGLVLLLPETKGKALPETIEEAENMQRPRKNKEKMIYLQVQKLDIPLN

OCT2 and MATE1 [2] = experiment: Buflomedil inhibition of OCT2 and MATE1 with cisplatin or oxaliplatin as substrate (FIG. 15B); type: cell-based, human
[3] = tested on: Balb/c mice exposed to chronic treatment with Oxaliplatin; experiment: Cold Plate Test in chronic oxaliplatin neuropathy model; type: in vivo, mouse; details: for Cold Plate Test pain signs after third injection / Cold Plate Test pain signs at the end of treatment (eight injections): OXA 3.5 mg/kg iv ± BFMD 30 mg/kg ip + 15 mg/kg iv; for Cold Plate Test pain signs after third injection: 3 cycles
Method: Cold Plate Test was used to determine the alterations in cold temperature related pain perception and their changes due to pharmacological treatment. Cold Plate Test was performed by using an apparatus (35100—Hot/Cold Plate. Ugo Basile instruments) composed by a Plexiglas cylinder and a thermostatic plate, able to reach variable temperatures. The mice were placed on the plate set at +4° C., free to move and walk. Two blinded experimenters simultaneously determine the number of pain signs (e.g. jumping, licking, etc.) in a trial of 5 minutes.

OCT2 [4] = target: T2, OCT2; experiment: Inhibition of OCT2-mediated ASP+ uptake (Kido et al., Giacomini group); details: human, cell line expressing human OCT2 (cell line not given), probe ASP+ 5 μM
[5] = tested on: MDCK cells expressing OCT2, MATE1 and MATE2K; experiment: LDH cytotoxicity of oxaliplatin in MDCK-II triple-transporter model; details: for effect on oxaliplatin induced cytotoxicity in OCT2 expressing cells: buflomedil 3 and 6 μM, dolutegravir 10 μM, erlotinib 6 μM, cimetidine 6 μM, FIG. 6
Method: A triple-transporter model for OCT2(SLC22A2), MATE1(SLC47A1), and MATE2-K(SLC47A2) was created by transfecting fully confluent MDCK-II cell monolayers with DNA mixture containing the plasmids encoding OCT2, MATE1, and MATE-2K at concentrations of 40, 15, and 5 ng/μl, respectively. The OCT2 was expressed on the basolateral cell membrane, and MATE1 and MATE2-K were expressed on the apical side of the cells. […] The apical medium was adjusted to pH 6.7 with 25 mM of 2-(N-morpholino) ethanesulfonic acid (MES).
After removal of the media, a drug-free medium was added in both sides. After incubation 24 hours, the medium was collected, and the lactate dehydrogenase (LDH) activity in the medium was measured using an LDH cytotoxicity assay kit (G-Biosciences. St. Louis, Mo.; or Biochain, Newark, Calif.), according to the manufacturers' instructions. Cytotoxicity was evaluated by measuring the LDH activity in the medium.
Cytotoxicity was tested using the same procedure described above.

OCT2 and MATE1 [6] = experiment: Buflomedil inhibition of OCT2 and MATE1 with metformin as substrate (FIG. 15A); type: cell-based, human
[7] = Plasma levels of buflomedil and oxaliplatin in the chronic model; type: in vivo, mouse; details: 15 minutes after the 8th cycle
Method: At baseline (before drug treatment) and at the end of treatment, caudal nerve conduction study (NCS), behavioral tests (Dynamic and Cold Plate), histopathology study were performed. Serum samples were collected at the end of treatment.

[8] = target: T3, OCT2 over OCT1, OCT3 and MATE1 (Homo sapiens, UniProt O15244); experiment: Inhibition of OCT2-mediated oxaliplatin transport in 100% human serum or HBSS containing 4% BSA (IC50,app); details: human, MDCK-II cells transfected with human transporters, fold higher potency (selectivity) for OCT2 over OCT1, OCT3 and MATE1 in transporting oxaliplatin, from IC50,app of Table 4
T3 sequence (O15244 1-555): T2 sequence (O15244 1-555)
Description: as §1

[9] = tested on: Balb/c mice exposed to acute treatment with Oxaliplatin; experiment: Cold plate test after a single oxaliplatin administration; type: in vivo, mouse; details: 48 hours after single OXA 3.5 mg/kg iv, DTG 4 mg/kg ip 1 hour before
Method: OXA vehicle, OXA, CPC, DTG, DTG+OXA and CPC+OXA were administered once time. In the group co-administered with OXA and DTG. DTG was injected intraperitoneally 1 hour before the administration of OXA. In the group co-administered with OXA and CPC, CPC was co-administered with OXA intravenously. Mechanical allodynia and cold sensory threshold (dynamic test and cold plate test) were performed 24 and 48 hours after the treatment, respectively, using the methods described in EXAMPLE 15 Plasma Sample Collection

Row | Structure (SMILES) | IC50 (MATE1) [µM] | Inhibition % @ 20 μM (substrate ASP+) (OCT2 [1]) [%] | difference in IC50s between oxaliplatin and cisplatin as substrate (OCT2 or MATE1) (OCT2 and MATE1 [2]) | selectivity toward OCT2 over MATE1, cisplatin or oxaliplatin as substrate (OCT2 and MATE1 [2]) | Cold Plate Test pain signs after third injection ([3]; listed as BFMD) | Cold Plate Test pain signs after third injection ([3]; listed as buflomedil) | Cold Plate Test pain signs at the end of treatment (eight injections) ([3]; 8 cycles, listed as BFMD) | Cold Plate Test pain signs at the end of treatment (eight injections) ([3]; 8 cycles, listed as buflomedil) | cold allodynia (cold plate test) ([3]; buflomedil 80 mg/kg po 2 hours before OXA, 8 cycles, n=3/group) | potency estimated from few doses (OCT2 [4]) [µM] | IC50 ([5]; Canis lupus familiaris, MDCK, read-out: IC50 for reduction of oxaliplatin-induced cytotoxicity) [µM] | reduction of cytotoxicity of 100 μM oxaliplatin ([5]; buflomedil 3-1000 μM, LDH release, FIG. 5) | effect on oxaliplatin induced cytotoxicity in OCT2 expressing cells [5] | inhibition selectivity between OCT2 and MATE1, metformin as substrate (OCT2 and MATE1 [6]) | pharmacokinetic interaction between BFMD and OXA (plasma levels) [7] | plasma level at the end of the study ([7]; BFMD 30 mg/kg ip + 15 mg/kg iv) [ng/mL] | selectivity ratio [8] | cold allodynia, cold plate [9] | cold allodynia, cold plate ([9]; listed as DTG)
1 | COc1cc(OC)c(C(=O)CCCN2CCCC2)c(OC)c1 [Buflomedil, 4-pyrrolidin-1-yl-1-(2,4,6-trimethoxyphenyl)butan-1-one] | 32.7 ± 5.4 | 104 | nearly identical IC50s; also recorded: no/minimal difference in its IC50s | great selectivity toward OCT2 | only the group treated with OXA alone showed a significant increase in pain signs | effective on reducing cold allodynia | significant decrease in pain signs versus OXA alone | effective on reducing cold allodynia | effective on reducing mechanical (FIG. 30A) and cold (FIG. 30B) allodynia; also recorded: showed protective effects against OXAIPN | < 0.1 | 6 | reduced cytotoxicity of 100 μM Oxaliplatin in OCT2-expressing cells in a dose-dependent fashion | significantly reduced oxaliplatin (OXA) induced cytotoxicity | no inhibition selectivity between OCT2 and MATE1 | No pharmacokinetic interaction was observed | > 1720 | > 10 |  | 
2 | C[C@@H]1CCO[C@H]2Cn3cc(C(=O)NCc4ccc(F)cc4F)c(=O)c(O)c3C(=O)N12 [Dolutegravir] |  |  |  |  |  |  |  |  |  |  |  |  | significantly reduced oxaliplatin (OXA) induced cytotoxicity |  |  |  | ≥ 10 | effective on reducing cold hypersensitivity | protects the animal from cold allodynia
3 | Clc1ccc(COC(Cn2ccnc2)c2ccc(Cl)cc2Cl)c(Cl)c1 (stereo not drawn) [Miconazole] | > 100 | 91 |  |  |  |  |  |  |  | 2 |  |  |  |  |  |  |  |  | 
